Measurements taken from ChEMBL document CHEMBL1139101, “Potent, selective, and orally active adenosine A2A receptor antagonists: arylpiperazine derivatives of pyrazolo[4,3-e]-1,2,4-triazolo[1,5-c]pyrimidines” (Bioorg Med Chem Lett, 2007).
pKi: −log10 of the molar value. Values after ≈ are worked out from the molar mass of the structure shown.

Key:
[1] = target: Adenosine receptor A2a (Homo sapiens, UniProt P29274); assay: Binding affinity to human adenosine A2A receptor
[2] = species on record: Homo sapiens; assay: Selectivity of human adenosine A2A receptor over human adenosine A1 receptor
[3] = tested on: Rattus norvegicus; assay: Inhibition of haloperidol-induced catalepsy in rat at 1 mg/kg, po after 1 hr; format: functional
[4] = tested on: Rattus norvegicus; assay: Inhibition of haloperidol-induced catalepsy in rat at 1 mg/kg, po after 4 hrs; format: functional
[5] = target: Adenosine receptor A2a (Rattus norvegicus, UniProt P30543); assay: Binding affinity to rat adenosine A2A receptor
Chain of Adenosine receptor A2a (Rattus norvegicus, UniProt P30543) (P30543 whole entry): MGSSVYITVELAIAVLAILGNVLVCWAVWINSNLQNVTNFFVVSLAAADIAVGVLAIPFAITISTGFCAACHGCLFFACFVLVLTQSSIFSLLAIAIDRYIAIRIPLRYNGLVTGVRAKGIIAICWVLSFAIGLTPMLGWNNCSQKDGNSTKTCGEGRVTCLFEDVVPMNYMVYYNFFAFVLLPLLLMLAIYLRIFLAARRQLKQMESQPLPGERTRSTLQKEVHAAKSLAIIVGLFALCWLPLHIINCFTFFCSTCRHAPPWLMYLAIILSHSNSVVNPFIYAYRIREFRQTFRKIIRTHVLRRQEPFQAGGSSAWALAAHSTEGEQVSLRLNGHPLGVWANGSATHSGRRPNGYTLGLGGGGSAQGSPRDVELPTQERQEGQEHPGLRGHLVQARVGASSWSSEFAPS

[6] = tested on: Rattus norvegicus; assay: Reversal of haloperidol-induced catalepsy in orally dosed rat after 1 hr; format: functional; settings: po, read-out: MED
[7] = target: T1, Adenosine receptor A1 (Homo sapiens, UniProt P30542); assay: Binding affinity to human adenosine A1 receptor
T1 sequence (P30542 whole entry): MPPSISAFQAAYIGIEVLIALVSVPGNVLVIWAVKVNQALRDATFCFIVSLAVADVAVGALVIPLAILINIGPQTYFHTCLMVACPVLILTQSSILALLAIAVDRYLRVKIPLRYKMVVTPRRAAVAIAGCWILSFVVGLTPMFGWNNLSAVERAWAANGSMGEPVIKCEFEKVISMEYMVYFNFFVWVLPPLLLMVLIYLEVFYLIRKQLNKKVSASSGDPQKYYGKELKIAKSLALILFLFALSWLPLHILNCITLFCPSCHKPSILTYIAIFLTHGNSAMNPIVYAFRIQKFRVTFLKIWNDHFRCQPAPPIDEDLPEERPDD

[8] = target: T2, Adenosine receptor A2b (Homo sapiens, UniProt P29275); assay: Binding affinity to human adenosine A2B receptor
T2 sequence (P29275 whole entry): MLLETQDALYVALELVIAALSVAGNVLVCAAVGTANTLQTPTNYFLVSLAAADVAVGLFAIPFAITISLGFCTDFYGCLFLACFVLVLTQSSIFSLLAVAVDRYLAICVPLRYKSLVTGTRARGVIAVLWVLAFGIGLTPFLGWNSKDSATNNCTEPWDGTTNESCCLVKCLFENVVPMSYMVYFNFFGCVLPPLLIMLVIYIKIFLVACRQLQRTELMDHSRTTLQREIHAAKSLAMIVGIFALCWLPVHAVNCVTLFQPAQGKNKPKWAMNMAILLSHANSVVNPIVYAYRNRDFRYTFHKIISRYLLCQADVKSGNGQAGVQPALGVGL

[9] = target: T3, Adenosine receptor A3 (Homo sapiens, UniProt P0DMS8); assay: Binding affinity to human adenosine A3 receptor
T3 sequence (P0DMS8 whole entry): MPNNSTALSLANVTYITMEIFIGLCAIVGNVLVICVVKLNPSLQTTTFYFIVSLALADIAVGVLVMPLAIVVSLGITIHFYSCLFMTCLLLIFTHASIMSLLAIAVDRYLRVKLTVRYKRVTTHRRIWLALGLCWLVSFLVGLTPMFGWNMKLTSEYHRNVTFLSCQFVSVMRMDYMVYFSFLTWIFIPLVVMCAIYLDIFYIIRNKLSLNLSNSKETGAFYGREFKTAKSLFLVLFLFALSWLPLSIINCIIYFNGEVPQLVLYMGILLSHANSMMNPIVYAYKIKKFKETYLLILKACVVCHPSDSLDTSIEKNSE

[10] = Solubility in water at pH 5.1; format: physicochemical
[11] = Solubility in 0.01 N Hcl; format: physicochemical; settings: buffer
[12] = species on record: Homo sapiens; assay: Selectivity of human adenosine A2A receptor over human adenosine A2B receptor
[13] = species on record: Homo sapiens; assay: Selectivity of human adenosine A2A receptor over human adenosine A3 receptor
[14] = target: Adenosine receptor A2a (Rattus norvegicus) (UniProt P30543); assay: Antagonist activity at rat adenosine A2A receptor assessed as CGS 21680-induced inhibition of adenylate cyclase activity by cell-based assay; format: functional
Chain of Adenosine receptor A2a (Rattus norvegicus) (P30543 whole entry): as the sequence (P30543 whole entry) above

[15] = Cmax in rat at 3 mg/kg, po; format: ADME, organism-based; set-up: dose 3 mg/kg, route oral; settings: in vivo
[16] = Tmax in rat at 3 mg/kg, po; format: ADME, organism-based; set-up: dose 3 mg/kg, route oral; settings: in vivo
[17] = AUC in rat at 3 mg/kg, po; format: ADME, organism-based; set-up: dose 3 mg/kg, route oral; settings: plasma
[18] = Half life in rat at 1 mg/kg, iv; format: ADME, organism-based; set-up: dose 1 mg/kg, route intravenous; settings: in vivo
[19] = Clearance in rat at 1 mg/kg, iv; format: ADME, organism-based; set-up: dose 1 mg/kg, route intravenous; settings: in vivo
[20] = Volume of distribution at steady state in rat at 1 mg/kg, iv; format: ADME, organism-based; set-up: dose 1 mg/kg, route intravenous; settings: in vivo, read-out: Vdss
[21] = Oral bioavailability in rat at 3 mg/kg; format: ADME, organism-based; settings: in vivo
[22] = Ratio of drug level in brain to plasma in rat; format: ADME

Chain of Adenosine receptor A2a (Homo sapiens, UniProt P29274) (P29274 whole entry): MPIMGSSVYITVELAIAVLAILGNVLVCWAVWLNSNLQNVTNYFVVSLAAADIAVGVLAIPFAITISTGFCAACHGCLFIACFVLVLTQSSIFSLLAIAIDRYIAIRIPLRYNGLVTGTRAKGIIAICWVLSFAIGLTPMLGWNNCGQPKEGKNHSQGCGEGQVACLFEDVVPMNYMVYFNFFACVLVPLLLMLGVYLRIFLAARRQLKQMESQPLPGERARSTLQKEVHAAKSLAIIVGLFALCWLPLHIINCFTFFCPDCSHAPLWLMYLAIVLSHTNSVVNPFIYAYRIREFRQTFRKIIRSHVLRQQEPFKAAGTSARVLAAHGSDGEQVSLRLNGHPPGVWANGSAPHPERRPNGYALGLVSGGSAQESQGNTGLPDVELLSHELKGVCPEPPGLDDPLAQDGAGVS

Compound	pKi [1]	Ratio Ki [2]	inhibition in vivo at 1 mg/kg [3] [%]	inhibition in vivo at 1 mg/kg [4] [%]	also measured
COC(C)COc1ccc(N2CCN(CCn3ncc4c3nc(N)n3nc(-c5ccco5)nc43)CC2)cc1 (racemic)	8.80	539	55	20	–
Nc1nc2c(cnn2CCN2CCN(c3ccc(O)cc3)CC2)c2nc(-c3ccco3)nn12	8.89	186	0	–	–
COCCOc1ccc(N2CCN(CCn3ncc4c3nc(N)n3nc(-c5ccco5)nc43)CC2)cc1 [PRELADENANT]	–	–	77	70	pKi [5]: 8.60; minimal effective dose [6]: 0.3 mg/kg; pKi [7]: < 6.00; pKi [8]: < 5.77; pKi [9]: < 6.00; solubility [10]: 0.2 µM (≈ 0.101 µg/mL); solubility [11]: 2000 µM (≈ 1010 µg/mL)
COCCOc1ccc(N2CCN(CCn3ncc4c3nc(N)n3nc(-c5ccco5)nc43)CC2)cc1	–	–	–	–	Activity [12]: > 1000; Activity [13]: > 1000; Kb [14]: 0.7 nM
CCOc1ccc(N2CCN(CCn3ncc4c3nc(N)n3nc(-c5ccco5)nc43)CC2)cc1	8.85	848	27	–	–
COCCOc1ccc(N2CCN(CCn3ncc4c3nc(N)n3nc(-c5ccco5)nc43)CC2)cc1.Cl	–	–	–	–	Cmax [15]: 762 nM; Tmax [16]: 0.25 h; AUC [17]: 1.56 µM·h; half-life [18]: 2.1 h; clearance [19]: 37 mL/min/kg; Vd [20]: 2.6 L/kg; bioavailability [21]: 57%; Kp [22]: 1
COCCOc1ccc(N2CCN(CCn3ncc4c3nc(N)n3nc(-c5ccco5)nc43)CC2)c(F)c1	9.40	1740	60	70	–
C[S+]([O-])COc1ccc(N2CCN(CCn3ncc4c3nc(N)n3nc(-c5ccco5)nc43)CC2)cc1 (stereo unspecified)	8.66	523	30	5	–
Nc1nc2c(cnn2CCN2CCN(c3ccc(F)c(F)c3)CC2)c2nc(-c3ccco3)nn12	8.85	169	45	–	–
Nc1nc2c(cnn2CCN2CCN(c3ccccc3)CC2)c2nc(-c3ccco3)nn12	8.80	343	52	0	–
Nc1nc2c(cnn2CCN2CCN(c3ccc(OCCOC4CC4)cc3)CC2)c2nc(-c3ccco3)nn12	9.22	930	59	30	–
N#Cc1ccc(N2CCN(CCn3ncc4c3nc(N)n3nc(-c5ccco5)nc43)CC2)cc1	8.68	571	0	–	–

Continued, in another order:

pKi [1]	Ratio Ki [2]	Compound	inhibition in vivo at 1 mg/kg [3] [%]	inhibition in vivo at 1 mg/kg [4] [%]	also measured
9.10	427	CC(=O)COc1ccc(N2CCN(CCn3ncc4c3nc(N)n3nc(-c5ccco5)nc43)CC2)cc1	15	10	–
9.22	> 1600	Nc1nc2c(cnn2CCN2CCN(c3ccc(F)cc3F)CC2)c2nc(-c3ccco3)nn12	75	80	–
9.22	1520	Nc1nc2c(cnn2CCN2CCN(c3ccc(OCCO)cc3)CC2)c2nc(-c3ccco3)nn12	15	25	–
9.22	1500	Nc1nc2c(cnn2CCN2CCN(c3ccc(F)c(F)c3F)CC2)c2nc(-c3ccco3)nn12	65	40	–
9.22	894	Nc1nc2c(cnn2CCN2CCN(c3ccccc3F)CC2)c2nc(-c3ccco3)nn12	20	25	–
8.96	319	Nc1nc2c(cnn2CCN2CCN(c3c(F)cc(F)cc3F)CC2)c2nc(-c3ccco3)nn12	65	75	–
9.22	1160	COCCCOc1ccc(N2CCN(CCn3ncc4c3nc(N)n3nc(-c5ccco5)nc43)CC2)cc1	8	2	–
9.30	1350	Nc1nc2c(cnn2CCN2CCN(c3ccc(Cl)cc3)CC2)c2nc(-c3ccco3)nn12	11	–	–
9.00	101	Nc1nc2c(cnn2CCN2CCN(c3ccc(F)cc3)CC2)c2nc(-c3ccco3)nn12	8	–	–
